Results: US20260020569A1, “PESTICIDALLY ACTIVE THIOSEMICARBAZONE COMPOUNDS” (BASF SE, priority 2021, published 2026)

What was measured:
Format in all cases: in vivo
[1] = tested on: Orchid thrips (Dichromothrips corbetti); assay: Action on orchid thrips (Dichromothrips corbetti), floral-immersion technique; settings: adult thrips, 72 hours after treatment, read-out: mortality in comparison with untreated controls
Procedure: Example B2: Action on Orchid Thrips (Dichromothrips corbetti)
Dichromothrips corbetti adults used for bioassay were obtained from a colony maintained continuously under laboratory conditions. For testing purposes, the test compound is diluted in a 1:1 mixture of acetone:water (vol:vol), plus Kinetic® HV at a rate of 0.01% v/v.
Thrips potency of each compound was evaluated by using a floral-immersion technique. All petals of individual, intact orchid flowers were dipped into treatment solution and allowed to dry in Petri dishes. Treated petals were placed into individual re-sealable plastic along with about 20 adult thrips. All test arenas were held under continuous light and a temperature of about 28° C. for duration of the assay. After 3 days, the numbers of live thrips were counted on each petal. The percent mortality was recorded 72 hours after treatment.

[2] = tested on: boll weevil (Anthonomus grandis); assay: Action on boll weevil (Anthonomus grandis), eggs on insect diet in microtiter plates; settings: 120 h, egg and larval mortality after 5 days, read-out: mortality in comparison with untreated controls
Procedure: Example B3: Action on Boll Weevil (Anthonomus grandis)
For evaluating control of boll weevil (Anthonomus grandis) the test unit consisted of 96-well-microtiter plates containing an insect diet and 5-10 A. grandis eggs.
The compounds were formulated using a solution containing 75% (v/v) water and 25% (v/v) DMSO. Different concentrations of formulated compounds were sprayed onto the insect diet at 5 μl, using a custom built micro atomizer, at two replications.
After application, microtiter plates were incubated at about 25+1° C. and about 75+5% relative humidity for 5 days. Egg and larval mortality were then visually assessed.

[3] = tested on: Silverleaf whitefly (Bemisia argentifolii) (adults); assay: Action on silverleaf whitefly (Bemisia argentifolii) adults on sprayed cotton plants; settings: 72 h, 3 days after treatment, read-out: mortality in comparison with untreated controls
Procedure: Example B4: Action on Silverleaf Whitefly (Bemisia argentifolii) (Adults)
(§1) The active compounds were formulated by a Tecan liquid handler in 100% cyclohexanone as a 10,000 ppm solution supplied in tubes. The 10,000 ppm solution was serially diluted in 100% cyclohexanone to make interim solutions. These served as stock solutions for which final dilutions were made by the Tecan in 50% acetone:50% water (v/v) into 5 or 10 ml glass vials. A non-ionic surfactant (Kinetic®) was included in the solution at a volume of 0.01% (v/v). The vials were then inserted into an automated electrostatic sprayer equipped with an atomizing nozzle for application to plants/insects.
Cotton plants at the cotyledon stage (one plant per pot) were sprayed by an automated electrostatic plant sprayer equipped with an atomizing spray nozzle. The plants were dried in the sprayer fume hood and then removed from the sprayer. Each pot was placed into a plastic cup and about 10 to 12 whitefly adults (approximately 3-5 days old) were introduced. The insects were collected using an aspirator and a nontoxic Tygon® tubing connected to a barrier pipette tip. The tip, containing the collected insects, was then gently inserted into the soil containing the treated plant, allowing insects to crawl out of the tip to reach the foliage for feeding. Cups were covered with a reusable screened lid. Test plants were maintained in a growth room at about 25° C. and about 20-40% relative humidity for 3 days, avoiding direct exposure to fluorescent light (24 hour photoperiod) to prevent trapping of heat inside the cup. Mortality was assessed 3 days after treatment, compared to untreated control plants.

[4] = tested on: tobacco budworm (Heliothis virescens); assay: Action on tobacco budworm (Heliothis virescens), eggs on insect diet in microtiter plates; settings: 120 h, egg and larval mortality after 5 days, read-out: mortality in comparison with untreated controls
Procedure: Example B5: Action on Tobacco Budworm (Heliothis virescens)
For evaluating control of tobacco budworm (Heliothis virescens) the test unit consisted of 96-well-microtiter plates containing an insect diet and 15-25 H. virescens eggs.
The compounds were formulated using a solution containing 75% v/v water and 25% v/v DMSO. Different concentrations of formulated compounds were sprayed onto the insect diet at 10 μl, using a custom-built micro atomizer, at two replications.
After application, microtiter plates were incubated at about 28+1° C. and about 80+5% relative humidity for 5 days. Egg and larval mortality were then visually assessed.

[5] = tested on: Diamond back moth (Plutella xylostella); assay: Action on diamond back moth (Plutella xylostella), cabbage leaf dip; settings: foliar, 3rd instar larvae on cabbage leaves, 72 hours after treatment, read-out: mortality in comparison with untreated controls
Procedure: Example B6: Action on Diamond Back Moth (Plutella xylostella)
The active compound is dissolved at the desired concentration in a mixture of 1:1 (v/v) distilled water:acetone. Surfactant (Kinetic® HV) is added at a rate of 0.01% (v/v). The test solution is prepared at the day of use.
Leaves of cabbage were dipped in test solution and air-dried. Treated leaves were placed in petri dishes lined with moist filter paper and inoculated with ten 3rd instar larvae. Mortality was recorded 72 hours after treatment. Feeding damages were also recorded using a scale of 0-100%.

[6] = tested on: Southern armyworm (Spodoptera eridania), 2nd instar larvae; assay: Action on southern armyworm (Spodoptera eridania), 2nd instar larvae on sprayed lima bean plants; settings: 96 h, 2nd instar larvae on lima bean plants, 4 days after treatment, read-out: mortality in comparison with untreated controls
Procedure: Example B7: Action on Southern Armyworm (Spodoptera eridania), 2nd Instar Larvae
as §1, with “into 10” for “into 5”, “or 20” for “or 10”, “A nonionic” for “A non-ionic”
Lima bean plants (variety Sieva) were grown 2 plants to a pot and selected for treatment at the 1st true leaf stage. Test solutions were sprayed onto the foliage by an automated electrostatic plant sprayer equipped with an atomizing spray nozzle. The plants were dried in the sprayer fume hood and then removed from the sprayer. Each pot was placed into perforated plastic bags with a zip closure. About 10 to 11 armyworm larvae were placed into the bag and the bags zipped closed. Test plants were maintained in a growth room at about 25° C. and about 20-40% relative humidity for 4 days, avoiding direct exposure to fluorescent light (24 hour photoperiod) to prevent trapping of heat inside the bags. Mortality and reduced feeding were assessed 4 days after treatment, compared to untreated control plants.

[7] = tested on: yellow fever mosquito (Aedes aegypti); assay: whole plant or invertebrate; settings: 48 h, larval mortality visually assessed after 2 days, read-out: mortality in comparison with untreated controls
Procedure: Example B1: Action on Yellow Fever Mosquito (Aedes aegypti)
For evaluating control of yellow fever mosquito (Aedes aegypti) the test unit consisted of 96-well-microtiter plates containing 200 μl of tap water per well and 5-15 freshly hatched A. aegypti larvae.
The active compounds or mixtures were formulated using a solution containing 75% (v/v) water and 25% (v/v) DMSO. Different concentrations of formulated compounds or mixtures were sprayed onto the insect diet at 2.5 μl, using a custom built micro atomizer, at two replications. For experimental mixtures in these tests identical volumes of both mixing partners at the desired concentrations respectively, were mixed together.
After application, microtiter plates were incubated at 28±1° C., 80±5% RH for 2 days. Larval mortality was then visually assessed.

| SMILES | mortality at 500 ppm [1] | mortality at 800 ppm [2] | mortality at 300 ppm [3] | mortality at 800 ppm [4] | mortality at 500 ppm [5] | mortality at 300 ppm [6] | mortality at 800 ppm [7] |
| --- | --- | --- | --- | --- | --- | --- | --- |
| COc1ccc(/C=C/C(=O)OCS/C(=N\N=C\c2ccc(-n3cc(NC(=O)c4ccc(OC(F)(F)F)cc4)c(C)n3)cc2C)Nc2cc(C)ccc2C(C)C)cc1 [Compound C-23, [(Z)—N-(2-isopropyl-5-methyl-phenyl)-N′-[(E)-[2-methyl-4-[3-methyl-4-[[4-(trifluoromethoxy)benzoyl]amino]pyrazol-1-yl]phenyl]methyleneamino]carbamimidoyl]sulfanylmethyl (E)-3-(4-methoxyphenyl)prop-2-enoate] | ≥ 75% | ≥ 75% | ≥ 75% | ≥ 75% | ≥ 75% | ≥ 75% |  |
| Cc1ccc(C(C)C)c(N/C(=N/N=C/c2ccc(-n3cc(NC(=O)c4ccc(OC(F)(F)F)cc4)c(C)n3)cc2C)SCOC(=O)C2CC2)c1 [Compound C-22, [(Z)—N-(2-isopropyl-5-methyl-phenyl)-N′-[(E)-[2-methyl-4-[3-methyl-4-[[4-(trifluoromethoxy)benzoyl]amino]pyrazol-1-yl]phenyl]methyleneamino]carbamimidoyl]sulfanylmethyl cyclopropanecarboxylate] | ≥ 75% | ≥ 75% |  | ≥ 75% | ≥ 75% | ≥ 75% | ≥ 50% |
| Cc1ccc(C(C)C)c(N/C(=N/N=C/c2ccc(-n3cc(NC(=O)c4ccc(OC(F)(F)F)cc4)c(C)n3)cc2)SCOC(=O)C(C)C)c1 [Compound C-6, [(Z)—N-(2-isopropyl-5-methyl-phenyl)-N′-[(E)-[4-[3-methyl-4-[[4 (trifluoromethoxy)benzoyl]amino]pyrazol-1-yl]phenyl]methyleneamino]carbamimidoyl]sulfanylmethyl 2-methylpropanoate] | ≥ 75% | ≥ 75% |  | ≥ 75% | ≥ 75% | ≥ 75% | ≥ 50% |
| COCCOCCOCCOCCOC(=O)OCS/C(=N\N=C\c1ccc(-n2cc(NC(=O)c3ccc(OC(F)(F)F)cc3)c(C)n2)cc1C)Nc1cc(C)ccc1C(C)C [Compound C-15, [(Z)—N-(2-isopropyl-5-methyl-phenyl)-N′-[(E)-[2-methyl-4-[3-methyl-4-[[4-(trifluoromethoxy)benzoyl]amino]pyrazol-1-yl]phenyl]methyleneamino]carbamimidoyl]sulfanylmethyl 2-[2-[2-(2-methoxyethoxy)ethoxy]ethoxy]ethyl carbonate] | ≥ 75% | ≥ 75% | ≥ 75% | ≥ 75% | ≥ 75% | ≥ 75% | ≥ 50% |
| Cc1ccc(C(C)C)c(N/C(=N/N=C/c2ccc(-n3cc(NC(=O)c4ccc(OC(F)(F)F)cc4)c(C)n3)cc2C)SCOC(=O)C2CCCCC2)c1 [Compound C-21, [(Z)—N-(2-isopropyl-5-methyl-phenyl)-N′-[(E)-[2-methyl-4-[3-methyl-4-[[4-(trifluoromethoxy)benzoyl]amino]pyrazol-1-yl]phenyl]methyleneamino]carbamimidoyl]sulfanylmethyl cyclohexanecarboxylate] | ≥ 75% | ≥ 75% | ≥ 75% | ≥ 75% | ≥ 75% | ≥ 75% |  |
| COCCOCCOCCOC(=O)OCS/C(=N\N=C\c1ccc(-n2cc(NC(=O)c3ccc(OC(F)(F)F)cc3)c(C)n2)cc1)Nc1cc(C)ccc1C(C)C [Compound C-5, [(Z)—N-(2-isopropyl-5-methyl-phenyl)-N′-[(E)-[4-[3-methyl-4-[[4-(trifluoromethoxy)benzoyl]amino]pyrazol-1-yl]phenyl]methyleneamino]carbamimidoyl]sulfanylmethyl 2-[2-(2-methoxyethoxy)ethoxy]ethyl carbonate] | ≥ 75% | ≥ 75% | ≥ 75% | ≥ 75% | ≥ 75% | ≥ 75% | ≥ 50% |
| Cc1ccc(C(C)C)c(N/C(=N/N=C/c2ccc(-n3cc(NC(=O)c4ccc(OC(F)(F)F)cc4)c(C)n3)cc2)SCOC(=O)N2CCOCC2)c1 [Compound C-10, [(Z)—N-(2-isopropyl-5-methyl-phenyl)-N′-[(E)-[4-[3-methyl-4-[[4-(trifluoromethoxy)benzoyl]amino]pyrazol-1-yl]phenyl]methyleneamino]carbamimidoyl]sulfanylmethyl morpholine-4-carboxylate] | ≥ 75% | ≥ 75% |  | ≥ 75% | ≥ 75% | ≥ 75% |  |
